One data set addresses T1, human 5-HT2c (Homo sapiens, UniProt P28335).
T1 construct: expressed in transfected cells
T1 sequence (P28335 33-458): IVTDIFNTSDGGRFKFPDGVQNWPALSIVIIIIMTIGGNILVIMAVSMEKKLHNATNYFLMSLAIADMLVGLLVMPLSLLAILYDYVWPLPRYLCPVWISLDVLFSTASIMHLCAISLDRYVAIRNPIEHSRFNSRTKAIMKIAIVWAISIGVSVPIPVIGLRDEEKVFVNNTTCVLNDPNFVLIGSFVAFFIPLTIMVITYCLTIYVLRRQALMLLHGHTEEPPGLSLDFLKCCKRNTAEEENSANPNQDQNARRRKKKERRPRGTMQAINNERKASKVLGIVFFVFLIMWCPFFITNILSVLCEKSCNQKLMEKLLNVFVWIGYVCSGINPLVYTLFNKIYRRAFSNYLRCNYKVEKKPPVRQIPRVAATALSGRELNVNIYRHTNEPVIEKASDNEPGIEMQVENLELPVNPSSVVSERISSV
As to the kind of experiment: In vitro inhibition of [3H]-ligand binding to human 5-HT2C receptor. The note with it: [3H]mesulergine, CHO cell membranes. As for the experimental part: (§1) Cells stably expressing the human homologs of the receptors (dopamine D2L, serotonin 5HT2A and 5HT2C, α1A adrenergic; cloned and expressed at Hoechst Marion Roussel; Grandy et al., 1989; Monsma et al., 1993; Schwinn et al., 1995) were grown; cell membranes were prepared, and kept frozen until used (Kongsamut et al., 1996). […] All binding parameters were optimized at Hoechst Marion Roussel; ligand Kds were determined using both saturation analysis (Scatchard) as well as kinetic analysis (association and dissociation rates). Each batch of membrane was validated by checking the ligand Kd, and rank order of potency of selected standard compounds. Assays for the serotonin 5HT2A and dopamine D2L receptors were conducted at 37° C. in a Tris buffer containing salts (50 mM Tris Buffer, pH 7.7; 120 mM NaCl; 5 mM KCl; 2 mM CaCl2; 1 mM MgCl2), while the serotonin 5-HT2C and α1A adrenergic receptor assays used a different buffer without salts (50 mM Tris, 4 mM CaCl2 and 1% ascorbate, pH 7.4). […]
(§2) Membranes were rapidly thawed and diluted to an appropriate concentration (between 20-150 μg protein/assay point depending on receptor expression level) in Tris buffer and homogenized. […] Microscint scintillation cocktail (40 μl) were added and the filter plates were counted in a Packard Top Count scintillation counter.

The next data set deals with T2, human D2L (Homo sapiens, UniProt P14416).
T2 construct: expressed in transfected cells
T2 sequence (P14416 whole entry): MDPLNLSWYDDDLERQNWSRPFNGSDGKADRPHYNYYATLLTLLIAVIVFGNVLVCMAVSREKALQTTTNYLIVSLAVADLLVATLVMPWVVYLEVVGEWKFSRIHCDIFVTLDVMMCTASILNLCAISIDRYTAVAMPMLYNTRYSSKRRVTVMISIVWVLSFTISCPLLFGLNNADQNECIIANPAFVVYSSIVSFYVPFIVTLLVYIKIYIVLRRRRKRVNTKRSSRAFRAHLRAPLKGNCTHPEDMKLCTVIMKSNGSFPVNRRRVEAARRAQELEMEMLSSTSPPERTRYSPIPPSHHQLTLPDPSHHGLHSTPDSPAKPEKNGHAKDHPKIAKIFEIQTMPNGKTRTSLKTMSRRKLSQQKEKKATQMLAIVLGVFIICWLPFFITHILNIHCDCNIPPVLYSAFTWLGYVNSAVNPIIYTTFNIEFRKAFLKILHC
As to the kind of experiment: In vitro inhibition of [3H]-ligand binding to human D2L receptor. The note with it: [3H]N-methyl spiperone, CHO cell membranes, 37° C.; read-out: D2 (Ki μM). As for the experimental part:
as §1, §2

A further data set deals with T3, human 5-HT2A (Homo sapiens, UniProt P28223).
T3 construct: expressed in transfected cells
T3 sequence (P28223 whole entry): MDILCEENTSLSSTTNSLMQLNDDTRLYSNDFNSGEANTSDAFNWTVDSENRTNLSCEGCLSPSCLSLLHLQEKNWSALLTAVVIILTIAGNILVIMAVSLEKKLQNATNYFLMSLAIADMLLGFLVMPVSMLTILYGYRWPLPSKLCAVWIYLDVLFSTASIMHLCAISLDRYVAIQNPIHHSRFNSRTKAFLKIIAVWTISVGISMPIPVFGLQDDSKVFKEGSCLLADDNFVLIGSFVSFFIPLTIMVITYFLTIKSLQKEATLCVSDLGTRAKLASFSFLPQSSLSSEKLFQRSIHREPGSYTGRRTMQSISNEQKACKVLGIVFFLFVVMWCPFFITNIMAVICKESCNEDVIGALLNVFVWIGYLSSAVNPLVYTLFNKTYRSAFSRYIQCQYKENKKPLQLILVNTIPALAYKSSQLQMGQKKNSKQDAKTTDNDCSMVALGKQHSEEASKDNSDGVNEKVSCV
As to the kind of experiment: In vitro inhibition of [3H]-ligand binding to human 5-HT2A receptor. As for the experimental part: Cells stably expressing the human homologs of the receptors (dopamine D2L, serotonin 5HT2A and 5HT2C, α1A adrenergic; cloned and expressed at Hoechst Marion Roussel; Grandy et al., 1989; Monsma et al., 1993; Schwinn et al., 1995) were grown; cell membranes were prepared, and kept frozen until used (Kongsamut et al., 1996). The relevance of these binding sites has been extensively discussed in the literature (see for example: Carlsson & Carlsson, 1990; Creese et al., 1976; Gorman & Vargas, 1995; Meltzer et al., 1989). All binding parameters were optimized at Hoechst Marion Roussel; ligand Kds were determined using both saturation analysis (Scatchard) as well as kinetic analysis (association and dissociation rates). Each batch of membrane was validated by checking the ligand Kd, and rank order of potency of selected standard compounds. […]
Membranes were rapidly thawed and diluted to an appropriate concentration (between 20-150 μg protein/assay point depending on receptor expression level) in Tris buffer and homogenized. […] Microscint scintillation cocktail (40 μl) were added and the filter plates were counted in a Packard Top Count scintillation counter. Data were analyzed to determine Ki's for compounds of interest (Prusoff & Cheng, […]).Table: Receptor Binding Parameters.

In the next data set the target is T4, human α1A (Homo sapiens, UniProt P35348).
T4 construct: expressed in transfected cells
T4 sequence (P35348 1-466): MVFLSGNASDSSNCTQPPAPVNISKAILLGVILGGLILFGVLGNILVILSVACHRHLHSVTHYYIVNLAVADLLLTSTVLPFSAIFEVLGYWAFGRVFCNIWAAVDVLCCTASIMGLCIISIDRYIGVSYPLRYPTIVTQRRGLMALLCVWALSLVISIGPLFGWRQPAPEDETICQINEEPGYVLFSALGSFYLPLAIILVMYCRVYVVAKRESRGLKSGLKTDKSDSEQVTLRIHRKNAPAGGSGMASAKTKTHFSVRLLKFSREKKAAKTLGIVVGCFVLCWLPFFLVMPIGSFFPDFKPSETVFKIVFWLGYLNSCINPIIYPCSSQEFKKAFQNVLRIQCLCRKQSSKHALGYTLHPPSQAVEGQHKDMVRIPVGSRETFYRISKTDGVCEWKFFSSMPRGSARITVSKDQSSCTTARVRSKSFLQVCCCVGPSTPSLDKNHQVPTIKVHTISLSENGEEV
Nature of the data set: In vitro inhibition of [3H]-ligand binding to human α1A adrenergic receptor. Conditions: [3H]prazosin, CHO cell membranes. As for the experimental part:
as §1, §2

Data set [1] can be described thus: In vitro BBMEC permeability (transport studies). The class given is in vitro ADME. The note with it: bovine, mean±standard deviation. As for the experimental part:
The procedure was performed according to: Kenneth L. Audus et al., Brain Microvessel Endothelial Cell Culture System (Chapter 13) pp 239-258. In Models for Assessing Drug Absorption and Metabolism, Ronald T. Borchardt et al. eds., Plenum Press, New York 1996, incorporated herein by reference.

Some results are limits rather than exact numbers.

As a reminder, the Ki is a dissociation constant, usually derived from enzyme kinetics or from competition with a known ligand. Regarding `COc1c(OS(=O)(=O)O)cccc1C(O)C1CCN(CCc2ccc(F)cc2)CC1` (stereo not drawn) [Example 1H, Sulfuric acid mono-(+)-[3-(-{1-[2-(4-fluoro-phenyl)-ethyl]-piperidin-4-yl}-hydroxy-methyl)-2-methoxy-phenyl] ester], the Ki at human 5-HT2c is > 1 µM; at human D2L, > 1 µM; on human 5-HT2A ([3H]N-methyl spiperone, BHK cell membranes, 37° C.), 0.16 µM; at human α1A, > 1 µM.
One may read the Papp as the rate of passage across a membrane or cell layer, normalised by area and donor concentration. A higher Papp goes with fast passage. In data set [1], `OC[C@@H](O)[C@@H](O)[C@H](O)[C@H](O)CO` [Mannitol (standard), Mannitol] yielded an apparent permeability coefficient (Papp) at 5.4 μM of 27.6 ± 2.3 ×10⁻⁶ cm/s.
What is called Kd is the free concentration of one partner at which half of the binding sites on the other are occupied at equilibrium, for simple one-to-one binding. The low end stands for a tighter complex, the high end for a looser complex. As to `CN1CN(c2ccccc2)C2(CCN(CCCC(=O)c3ccc(F)cc3)CC2)C1=O` [[^3H]N-methyl spiperone, reference compound], on human 5-HT2A (human 5-HT2A, BHK, saturation (Scatchard) and kinetic analysis), the affinity, expressed as Kd, was 0.92 nM.

The values are drawn from patent publication US6716986B2, “Sulfuric acid mono-[3-({1-[2-(4-fluoro-phenyl)-ethyl]-piperidin-4-YL}-hydroxy-methyl)-2-methoxy-phenyl]ester” (Aventis Pharmaceuticals Inc., priority 1999, dated 2004).
